Measurements taken from US20150258107A1, “METHODS AND COMPOSITIONS FOR TREATING DEPRESSION” (DemeRx, Inc., priority 2014, published 2015).

Key:
dogs = assay: Fourteen day repeat dose toxicity in dogs; format: in vivo, dog
Procedure: The objective of this study was to determine the toxicity profile of noribogaine HCl given following oral (gavage) administration to dogs for 14 days according to the following Table 3 below:
Noribogaine HCl was administered to groups of 4 male and 4 female dogs by single oral gavage daily for 14 days at doses of 0, 0.5, 1.0 and 5.0 mg/kg/day. An additional group of 4 male and 4 female dogs received either the vehicle control or 5.0 mg/kg/day for 14 days and were held for an additional 28 days after cessation of dosing to assess recovery from any potential drug-induced changes. The study was conducted under GLP guidelines and included comprehensive examinations of clinical signs, body weight, clinical pathology parameters, ophthalmologic examinations, ECG recordings and analyses of plasma for bioanalytical measurement of drug levels at appropriate intervals during the study. At the termination of the dosing phase and at the termination of the recovery phase, all dogs were subjected to a complete post-mortem examination including gross examination of major organs and histologic examination of an extensive list of tissues. Additional sections of brain were obtained from cerebrum, cerebellus, brain stem and spinal cord and examined histologically to evaluate potential effects on brain histopathology. In addition, these sections were examined with immunohistochemical stains for GFAP for evidence of gliosis and Calbindin for a more comprehensive examination of cerebellar Purkinje cells.

Sprague-Dawley rats = assay: Fourteen day repeat dose toxicity in rats; format: in vivo, rat
Procedure: This study was conducted to evaluate the toxicity profile of noribogaine-HCl following oral (gavage) administration to the rat for 14 days following Table 2 below:
Male and female Sprague-Dawley rats, 10/sex/group, were administered 0, 25, 50 or 100 mg/kg noribogaine HCl daily by single oral gavage for 14 days. An additional 5 rats/sex/group in the 0 (control) and 100 mg/kg groups were retained for a 28 day recovery period during which no drug was administered. Six rats/sex/group (3 rats/sex controls) were similarly dosed and sampled on study days 1 and 14 for analysis of noribogaine-HCl concentrations in the blood.

Sprague-Dawley rat = assay: Single dose toxicity in rats; format: in vivo
Procedure: The objective of this study was to determine the toxicity and toxicokinetic profile of noribogaine HCl following a single oral (gavage) administration in the Sprague-Dawley rat. A single dose of 100, 300 and 800 mg/kg (achieved with doses of 400 mg/kg 3 h+/−30 min apart because of the limitations of maximum dose formulation concentration). Five male rats/group were used. […] Hypoactivity, vocalization, chewing movements, changes in respiration/posture, salivation, stimuli sensitivity, tremors, twitches and penile erection occurred prior to death. […] The NOAEL was determined to be 100 mg/kg.

[1] = Human pharmacokinetic study, single oral tablet, fasting healthy volunteers (serum levels); format: in vivo; conditions: 3, 10, 30 or 60 mg once orally, healthy volunteers
Procedure: In double blind studies, fasting healthy volunteers (6 per cohort) were treated once orally with a tablet of noribogaine HCl. In escalating cohorts, the volunteers received 3 mg, 10 mg, 30 mg or 60 mg noribogaine.

[2] = Pharmacokinetics of noribogaine in healthy male volunteers (plasma and urine, LCMSMS); conditions: for AUC0-216 / AUC0-∞ / Cmax / Tmax / t½: mean (SD)
[3] = glucuronide in plasma after 30 mg noribogaine (n = 6)
[4] = glucuronide in plasma after 60 mg noribogaine (n = 6)
[5] = plasma, 30 mg and 60 mg dose groups

In the case of `CC[C@@H]1C[C@H]2CC3c4[nH]c5ccc(O)cc5c4CCN(C2)C31.Cl` [noribogaine HCl], the “Lacrimal gland changes (only target tissue)” value (dogs; 5 mg/kg/day) is reported as “slight to moderate atrophy and degeneration of the acinar cells”, the “Lacrimal gland change after 28 days recovery” value (dogs; 5 mg/kg/day recovery group) is reported as “clear evidence of regeneration” and the “Adverse effect in clinical observations, body weights, clinical pathology, ophthalmology, ECG, gross lesions” value (dogs; 0.5, 1.0, 5.0 mg/kg/day oral gavage 14 days, dosing or recovery phase) is reported as “No evidence of adverse effect”. It also gave an NOAEL (dogs; 14 days oral gavage, based on lacrimal gland changes at 5 mg/kg/day) of 1 mg/kg/day, a Body weight change (Sprague-Dawley rats; 100 mg/kg, females) of −2.6% and a Body weight change (Sprague-Dawley rats; 100 mg/kg, males) of −5.5%. For the same compound, the Food consumption change (Sprague-Dawley rats; 100 mg/kg, males and females) was −4.7%, the “Test article-related effects on mortality, clinical signs, ophthalmoscopy, hematology, coagulation, clinical chemistry, urinalysis, gross necropsy, histopathology” value (Sprague-Dawley rats; 25, 50 or 100 mg/kg daily oral gavage, 14 days) was “no test article-related effects” and the “Brain sections stained for GFAP or Calbindin” value (Sprague-Dawley rats; 14 days oral gavage) was “No treatment-related differences”. The NOAEL (Sprague-Dawley rats; 14 days oral gavage, highest dose tested) was 100 mg/kg, the Liver weight (Sprague-Dawley rats; mid- and high dose groups) was “Minor increases in liver weight” and the Treatment related signs (Sprague-Dawley rat; 100 mg/kg) was “did not show any treatment related signs”. The “Rats with clinical signs (hypoactivity, vocalization, salivation, stimuli sensitivity, loss of limb function, lying on cage floor) persisting until Day 2” value (Sprague-Dawley rat; 300 mg/kg) was 3/5, the Mortality (Sprague-Dawley rat; 800 mg/kg (two doses of 400 mg/kg 3 h apart), oral gavage, 5 male rats) was “Mortality occurred in all male rats” and the “Time of mortality after administration of the second dose” value (Sprague-Dawley rat; 800 mg/kg group) was 2 to 3 h. The NOAEL (Sprague-Dawley rat; single oral gavage, male rats) was 100 mg/kg and the “Clinically relevant adverse effects” value [1] was “no clinically relevant adverse effects were observed”.

In the case of `CC[C@H]1C[C@@H]2C[C@H]3c4[nH]c5ccc(OC6OC(C(=O)O)C(O)C(O)C6O)cc5c4CCN(C2)[C@@H]13` (stereo partly shown) [Noribogaine glucuronide, noribogaine glucuronide], the “Proportion of Cmax and AUC relative to noribogaine” value ([2]; both dose groups (30 mg, 60 mg)) is reported as 3-4%, the AUC0-216 [2, 3] is reported as 25.7 (9.1) ng · hr/ml and the “AUC0-∞” value [2, 3] is reported as 25.8 (9.3) ng · hr/ml. The Cmax [2, 3] was 1.8 (0.6) ng/ml, the Tmax [2, 3] was 3.0 (0.6) hr and the t½ [2, 3] was 20.6 (4.9) hr. The AUC0-216 [2, 4] was 65.0 (21.5) ng · hr/ml, the “AUC0-∞” value [2, 4] was 67.1 (21.9) ng · hr/ml and the Cmax [2, 4] was 4.1 (1.2) ng/ml. The Tmax [2, 4] was 3.8 (1.2) hr, the t½ [2, 4] was 23.1 (3.0) hr and the Mean half-life [2, 5] was 21 to 23 h. For the same compound, the “Time of peak concentrations after noribogaine dosing” value [2, 5] was 3 to 4 h and the “Time by which detected in all subjects” value ([2]; plasma, after 30 mg and 60 mg noribogaine) was no more than 0.75 h.
